From a melting point compilation (Tetko et al.; mined from patent text by program, amines drawn as free bases though some values may be those of a salt)

SMILES	melting point [°C]
Nc1nc2nc(NCCCN3CCOCC3)ncc2cc1-c1c(Cl)cccc1Cl	224 to 230
C[C@@H]1C(=O)C[C@H]2C[C@@H]1OO[C@@]2(C)/C=C\c1ccc(C#N)cc1	125
CSc1ccc(-c2nn(Cc3cccnc3)c(=S)cc2-c2ccc(Cl)cc2)cc1	130 to 131
CS(=O)(=O)c1c(F)nc(F)nc1F	103 to 105
C=CCOC(=O)C1CC(=O)N(C2CC(C)(C)N(C)C(C)(C)C2)C1 (stereo not given)	48 to 49
C=CCCn1cc(Br)cnc1=O	127 to 128
CC1CC(=O)C1(Cl)CC(Cl)(Cl)Cl (stereo not given)	80 to 81
O=C(Nc1ccc(-c2nc(-c3ccco3)no2)c(Cl)c1)Oc1ccccc1	184 to 186
O=C1NCCCC12c1ccccc1-c1ccccc12	> 250
CC(=O)C(Cc1c(CCN(C)C)[nH]c2ccccc12)(c1ccccc1)c1ccccc1	135 to 137
Cn1nc(-c2ncc(Cl)cc2F)c(Cl)c1OC(F)F	95 to 96
CC(C)n1cnc2nc(-c3ccc(Cl)cc3)nn2c1=S	230 to 232
O=c1c(O)cn(-c2ccccc2F)nc1-c1ccnn1-c1ccccc1	218 to 220
Cn1nc2n(c1=O)-c1ccc(Cl)cc1C(c1ccccc1F)=CC2	142 to 143
Clc1ncnc2c1c(Nc1ccccc1)nn2Cc1ccccc1	135
CCCCCCCN(CCCCCS(=O)(=O)c1nc(-c2ccccc2)c(-c2ccccc2)[nH]1)C(=O)Nc1ccc(F)cc1F	66 to 68
CN1CC(CCN2CCN(c3ccc(Br)cc3)CC2)OC1=O (stereo not given)	125 to 127
CC(C)(C)c1cc(C2N(c3ccccc3)CCN2c2ccccc2)cc(C(C)(C)C)c1O	144
CCCCNC(=O)Nc1ccc2c(c1Cl)C(c1ccccc1F)=NCC(=O)N2C	196 to 198
O=C(C(Br)c1ccc(Cl)cc1)C1(c2ccc(Cl)c(Cl)c2)CCC1 (stereo not given)	109 to 110
O=c1cc(-c2ccccc2)oc(=O)[nH]1	> 210
O=C(O)N1C=CC=NC=C1	238 to 240
COc1cc(-c2ncnc(C(F)F)c2Cl)c(F)cc1Cl	118 to 119
Cl/C(=C/n1cncn1)c1ccc(Br)cc1Cl	84
O=c1[nH]c(COCC(F)(F)F)nc2nccnc12	165 to 167

SMILES	melting point [°C]
C[C@@H]1OCCN(c2cc(N3CCOCC3)nc(-n3c(CO)nc4ccccc43)n2)[C@@H]1C (relative stereo)	125 to 128
CN(C)C(=O)c1c(-c2ccc(C(F)(F)F)cc2)ccc2ccccc12	184 to 186
O=c1[nH]c2ncc(-c3ccc(-c4nnc[nH]4)cc3)nc2n1CC1CCOCC1	342 to 345
COc1ccc(CCN(C)CCCCc2ccc(NC(=O)c3cccc4c(=O)c5cccc(OC)c5[nH]c34)cc2)cc1	182
N#CCC(=O)OC(COc1ccc(C(=O)c2ccccc2)c(O)c1)COc1ccc(C(=O)c2ccccc2)c(O)c1	167 to 168
CN1CC=C(c2c[nH]c3ccc(C(=O)O)cc23)CC1	249
O=C(O)COc1cccc(CCc2nc(-c3ccccc3)c(-c3ccccc3)o2)c1	153 to 154
C1=C(COc2ccccc2)CCN(Cc2c[nH]c3ncccc23)C1	161 to 163
CS(=O)(=O)c1ccc(-c2cnn(-c3cc(F)cc(F)c3)c(=O)c2-c2ccc(F)cc2)cc1	166 to 168
COc1cc(-n2nc(C(F)(F)F)cc2-c2ccc(-c3ccco3)cc2)ccc1S(C)(=O)=O	139
c1ccc(-c2cc(-c3ccc(C4CCCC4)cc3)sc2-c2ccccc2)cc1	150
Cc1oc(-c2ccccc2)nc1CCOc1ccc(C[C@@H](C(=O)O)N2CCN(c3ccccc3)CC2)cc1	218 to 220
CN(C(=O)CN1C(=O)C2(COc3cc4c(cc32)CCO4)c2ccccc21)c1ccccc1 (stereo not given)	234 to 238
Cc1ccc(Nc2ccc(OC(F)(F)F)cc2)cc1	43.7
CSC(C)(C)C=NOC(=O)N(C)SN(C)C	48 to 50
O=c1[nH]c2cc(F)c([N+](=O)[O-])c(Br)c2[nH]c1=O	320 to 325
CS(=O)(=O)c1ccc2c(c1)C(=O)CC1(CCN(C(=O)c3ccccc3)CC1)O2	155 to 157
CCOC(=O)/C=C(C)/C(F)=C/C=C(C)/C=C/c1c(Cl)cc(OC)c(Cl)c1Cl	140 to 142
Cc1cc(-c2ccc(F)cc2)c(C=CC=O)o1	89 to 90
O=C(O)CCCCCn1c(=O)c2ccccc2n(CCCCN2CCC(OC(c3ccccc3)c3ccccc3)CC2)c1=O	155 to 157
O=C(O)C1CCc2c(c3ccccc3n2C(=O)C2CCCCC2)C1 (stereo not given)	157 to 159
O=C(Cc1ccc(C(F)(F)F)cc1)c1ccc(F)cc1	93 to 95
CCCC[C@H]1CC[C@H](C(=O)O)CC1	37 to 39
COc1ccc(Nc2cnc3cnc(-c4ccc(O)cc4)nc3c2)cc1	134 to 136
Cc1ccc(Nc2nc3ccccc3c3[nH]c(C4CCCC4)nc23)cc1	125 to 126

Now from value to compound:

melting point [°C]	SMILES
76.4	O=C(Cn1cccn1)c1ccc(F)cc1F
95 to 96	CCCN1N=C(c2ccc(OC)c(OC)c2)[C@@H]2CCCC[C@@H]2C1=O (relative stereo)
203 to 204	COc1cccc(C(=O)Nc2ccc3c(c2)CCC3=O)c1
160 to 161	Cc1nc(Sc2ccc(N)cc2)nc(C)c1Cl
145 to 148	CCC(CC)C(=O)C(C1CCc2ccccc2N1)N1CCN(c2cccc3[nH]ccc23)CC1 (stereo not given)
153 to 154	CCOc1cc2c(C)c(CCOS(C)(=O)=O)c(=O)oc2cc1OC
183 to 184	Cc1cccc(-c2nc(O)c(C)s2)c1Cl
54 to 56.5	CC(S)CNC(=O)OCc1ccc([N+](=O)[O-])cc1 (stereo not given)
122 to 125	CCCSc1ccc([N+](=O)[O-])c(NC(=S)NC(=O)OC)c1
187 to 188	CCOC(=O)C1=C(C)NC2=C(C(=O)N(CCN(CC)CC)C2)C1c1ccccc1[N+](=O)[O-] (stereo not given)
95 to 98	CCCn1cc(Cc2ccc(C(=O)NS(=O)(=O)c3ccccc3Cl)cc2OC)c2cc(CCC(C)C(=O)N(C)C)ccc21 (stereo not given)
136 to 139	CC(=O)NC(Cc1ccc(C)c(C)c1)C(=O)O (racemic)
195 to 198	CCCOc1nsc(NC(=O)NC)c1C(N)=O
105 to 106	COC(=O)c1ccnc(NC(=O)C(C)CSC(C)=O)c1 (stereo not given)
148	COCCNc1ccc(N2CCOC2=O)cc1[N+](=O)[O-]
149 to 150	Cc1ccsc1C(=O)c1cc(CN(C)C)c(O)c(C(C)(C)C)c1
169 to 173	COc1ccc(Nc2nc(Cl)nc(NCCO)n2)cc1
132	CC#CCOc1cc(Oc2ccc([N+](=O)[O-])cc2F)ncn1
116 to 118	CC(=O)c1ccc(OC(C)CCCCC(=O)O)cc1O (stereo not given)
86 to 89	CCCCOCCOc1ccc(-c2ccc(N3CCCCCC3)c(C=C(C)C(=O)OC)c2)cc1
131 to 132	CC(C)(C)OC(=O)Nc1ncc(-c2ccc(C#Cc3ccccc3)cc2)n1C(=O)OC(C)(C)C
> 300	CNC(=S)n1nc(NC(=O)c2ccccc2)nc1N
169 to 171	COc1ccc(NC(=O)c2ccc3c(c2)C(C)(C)C(=O)N3)cc1
144 to 147	NC(=O)CCN1CCC(c2noc3cc(F)ccc23)CC1
233 to 236	CCOC(=O)C=Cc1nc(-c2ccc(=O)n(C(C)C)n2)c(-c2ccccc2)nc1N

melting point [°C]	SMILES
212 to 215	Cc1ccc(-c2c(Cl)nc(C#N)n2O)cc1
90 to 92	CC(C)NC(=O)NC/C=C\COc1cc(CN2CCCCC2)ccn1
107 to 114	COC(=O)NC1CN(C(=O)Nc2ccc(OC(F)(F)F)cc2)NC1c1ccc(Cl)cc1 (stereo not given)
175 to 177	O=CNc1cnc2ccccc2c1Cl
197 to 198	Cc1c2c(c(Cc3ccc(C(C)C)cc3)c(C)c1NC(=O)NC(C)(C)C)OCC2
58 to 60	C=C(CCCl)C(=O)c1ccc(OC)c(Cl)c1Cl
93 to 94	COc1cccc(-c2nc3c(C(N)=O)cccc3[nH]2)c1
92 to 98	CCCCNC(=O)c1c(N)cc(Cl)cc1Cl
168 to 169	Cn1cc(-c2cc3cccnc3[nH]2)c2cc(OC3(C(=O)O)CCC3)ccc21
191 to 192	CCCCn1nc(Cc2ccc(-c3ccccc3-c3nnn[nH]3)cc2)c(C(=O)O)c1CC
70	O=C(O)CCOc1cccc(CNC(=O)C2Cc3ccccc3N2S(=O)(=O)c2ccc(-c3cccc(C(F)(F)F)c3)cc2)c1 (stereo not given)
209 to 212	Cc1ccc(Sc2ccc3c(c2)CC[C@H]2NC(=O)CC[C@]32C)cc1
119 to 124	CC(C)(C)OC(=O)N1CCc2c(n(CCCc3ccccc3)c3cc(Cl)c(Cl)cc23)CC1
167 to 168	CCOC(=O)c1ccc(-c2ncc(-c3ccc(Cl)cc3)s2)cc1
185 to 186	COc1ccc2c(c1)CCC(=O)NC2c1ccccc1 (stereo not given)
222 to 224	CNC(=O)Nc1ccc(OCC2CCN(c3ccncc3)CC2)cc1
84 to 85	CCCC(=O)Oc1cc2c(s1)CCN(C(C(=O)C1CC1)c1ccccc1F)C2 (stereo not given)
> 250	O=C(O)c1cc(-c2ccncn2)c[nH]c1=O
127 to 129	COc1cc(CN2CCc3c(sc(N)c3C(=O)c3ccc4ccccc4c3)C2)cc(OC)c1OC
170	COc1cc(CC(=O)N2CCN(c3nsc4ccccc34)CC2)c([N+](=O)[O-])cc1OC
215 to 216	CCc1cc2c(C(=O)O)ccc(OC)c2o1
85 to 90	CCOC(=O)CC(=O)c1cc(Oc2ccccc2)c(NS(C)(=O)=O)cc1OCc1ccccc1
151 to 156	CSC(=C[N+](=O)[O-])NCCSCc1csc(NC(=N)N)n1
74 to 76	COc1cc(CC(=O)O)ccc1OCCNC(=O)C1Cc2ccccc2N1S(=O)(=O)c1ccc(-c2cc(C(F)(F)F)ccc2Cl)cc1 (stereo not given)
130 to 131	COc1cc(C2CCCCC2)ccc1C(=O)CCC(=O)O
